Columns and labels:
[1] = biological target: 5-hydroxytryptamine receptor 2B (Homo sapiens, UniProt P41595)
[2] = biological target: 5-hydroxytryptamine receptor 1B (Homo sapiens, UniProt P28222)
[3] = biological target: 5-hydroxytryptamine receptor 2A (Homo sapiens, UniProt P28223)
[4] = biological target: 5-hydroxytryptamine receptor 6 (Homo sapiens, UniProt P50406)
D(3) dopamine receptor = D(3) dopamine receptor (Homo sapiens, UniProt P35462)
[5] = biological target: Muscarinic acetylcholine receptor M3 (Homo sapiens, UniProt P20309)
[6] = biological target: 5-hydroxytryptamine receptor 1E (Homo sapiens, UniProt P28566)
D(2) dopamine receptor = D(2) dopamine receptor (Homo sapiens, UniProt P14416)
[7] = biological target: 5-hydroxytryptamine receptor 4 (Sus scrofa, UniProt Q29006)
[8] = biological target: T1, 5-hydroxytryptamine receptor 1F (Homo sapiens, UniProt P30939)
T1 sequence (P30939 whole entry): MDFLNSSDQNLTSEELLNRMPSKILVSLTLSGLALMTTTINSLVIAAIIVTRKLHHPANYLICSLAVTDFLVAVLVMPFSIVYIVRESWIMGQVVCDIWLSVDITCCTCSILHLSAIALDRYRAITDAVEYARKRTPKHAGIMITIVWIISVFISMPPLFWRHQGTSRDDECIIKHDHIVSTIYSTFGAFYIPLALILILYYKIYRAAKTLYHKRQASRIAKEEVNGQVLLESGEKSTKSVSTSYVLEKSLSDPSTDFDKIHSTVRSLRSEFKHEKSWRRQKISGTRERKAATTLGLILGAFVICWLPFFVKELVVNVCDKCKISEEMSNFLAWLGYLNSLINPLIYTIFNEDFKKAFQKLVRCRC

[9] = biological target: 5-hydroxytryptamine receptor 7 (Homo sapiens, UniProt P34969)
[10] = biological target: T2, Alpha-1B adrenergic receptor (Homo sapiens, UniProt P35368)
T2 sequence (P35368 whole entry): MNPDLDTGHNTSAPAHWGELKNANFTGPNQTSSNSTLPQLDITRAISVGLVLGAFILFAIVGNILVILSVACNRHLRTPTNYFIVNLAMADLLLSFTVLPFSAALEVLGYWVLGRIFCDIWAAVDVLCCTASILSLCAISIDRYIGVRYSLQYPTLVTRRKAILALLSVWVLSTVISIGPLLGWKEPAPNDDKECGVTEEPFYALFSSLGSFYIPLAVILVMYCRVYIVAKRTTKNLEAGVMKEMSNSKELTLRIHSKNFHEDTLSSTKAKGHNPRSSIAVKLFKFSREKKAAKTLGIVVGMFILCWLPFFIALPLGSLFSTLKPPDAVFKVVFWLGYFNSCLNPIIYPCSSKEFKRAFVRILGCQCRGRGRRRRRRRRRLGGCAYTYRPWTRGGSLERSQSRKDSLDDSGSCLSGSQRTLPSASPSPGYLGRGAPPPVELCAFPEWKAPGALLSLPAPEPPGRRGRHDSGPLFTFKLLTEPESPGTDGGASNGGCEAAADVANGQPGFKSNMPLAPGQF

[11] = biological target: T3, 5-hydroxytryptamine receptor 2C (Homo sapiens, UniProt P28335)
T3 sequence (P28335 whole entry): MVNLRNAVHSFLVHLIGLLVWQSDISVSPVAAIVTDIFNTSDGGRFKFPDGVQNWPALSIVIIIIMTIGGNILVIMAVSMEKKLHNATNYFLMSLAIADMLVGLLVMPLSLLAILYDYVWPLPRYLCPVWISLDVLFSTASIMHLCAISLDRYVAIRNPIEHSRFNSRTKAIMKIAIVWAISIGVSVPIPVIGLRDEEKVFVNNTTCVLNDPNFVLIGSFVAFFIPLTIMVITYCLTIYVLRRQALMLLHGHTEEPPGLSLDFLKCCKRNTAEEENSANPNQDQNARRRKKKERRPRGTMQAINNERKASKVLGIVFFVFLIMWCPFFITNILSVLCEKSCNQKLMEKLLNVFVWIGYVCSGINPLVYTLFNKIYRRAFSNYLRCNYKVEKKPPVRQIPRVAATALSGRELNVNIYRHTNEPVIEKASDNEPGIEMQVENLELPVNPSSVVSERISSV

Sequence of 5-hydroxytryptamine receptor 7 (P34969 whole entry): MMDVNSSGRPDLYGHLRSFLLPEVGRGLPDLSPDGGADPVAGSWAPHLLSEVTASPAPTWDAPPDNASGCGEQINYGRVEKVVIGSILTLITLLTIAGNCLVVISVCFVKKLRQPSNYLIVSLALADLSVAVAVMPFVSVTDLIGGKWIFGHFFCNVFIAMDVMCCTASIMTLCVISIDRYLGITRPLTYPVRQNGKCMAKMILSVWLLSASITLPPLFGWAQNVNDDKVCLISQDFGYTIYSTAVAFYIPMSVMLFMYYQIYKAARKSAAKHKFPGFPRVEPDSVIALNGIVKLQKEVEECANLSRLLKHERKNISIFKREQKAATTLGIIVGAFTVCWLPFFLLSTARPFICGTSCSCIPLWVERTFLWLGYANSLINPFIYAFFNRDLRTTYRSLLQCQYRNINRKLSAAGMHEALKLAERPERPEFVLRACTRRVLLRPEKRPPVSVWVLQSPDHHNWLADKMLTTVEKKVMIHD
Sequence of 5-hydroxytryptamine receptor 6 (P50406 whole entry): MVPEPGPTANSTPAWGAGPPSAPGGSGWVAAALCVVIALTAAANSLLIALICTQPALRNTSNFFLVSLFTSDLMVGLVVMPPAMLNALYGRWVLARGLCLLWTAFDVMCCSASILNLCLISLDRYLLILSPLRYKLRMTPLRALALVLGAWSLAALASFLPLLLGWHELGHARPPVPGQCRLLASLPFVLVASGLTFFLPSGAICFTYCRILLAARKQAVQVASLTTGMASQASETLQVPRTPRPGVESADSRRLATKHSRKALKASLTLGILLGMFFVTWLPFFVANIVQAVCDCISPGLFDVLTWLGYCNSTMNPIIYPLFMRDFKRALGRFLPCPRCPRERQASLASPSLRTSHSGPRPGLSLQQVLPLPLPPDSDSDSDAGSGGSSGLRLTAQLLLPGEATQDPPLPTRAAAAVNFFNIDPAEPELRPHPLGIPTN
Sequence of 5-hydroxytryptamine receptor 4 (Q29006 whole entry): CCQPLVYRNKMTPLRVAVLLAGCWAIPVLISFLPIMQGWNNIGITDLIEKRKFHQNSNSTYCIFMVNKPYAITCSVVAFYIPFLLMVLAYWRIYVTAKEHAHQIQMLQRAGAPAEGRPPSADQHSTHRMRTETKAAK
Sequence of 5-hydroxytryptamine receptor 1B (P28222 whole entry): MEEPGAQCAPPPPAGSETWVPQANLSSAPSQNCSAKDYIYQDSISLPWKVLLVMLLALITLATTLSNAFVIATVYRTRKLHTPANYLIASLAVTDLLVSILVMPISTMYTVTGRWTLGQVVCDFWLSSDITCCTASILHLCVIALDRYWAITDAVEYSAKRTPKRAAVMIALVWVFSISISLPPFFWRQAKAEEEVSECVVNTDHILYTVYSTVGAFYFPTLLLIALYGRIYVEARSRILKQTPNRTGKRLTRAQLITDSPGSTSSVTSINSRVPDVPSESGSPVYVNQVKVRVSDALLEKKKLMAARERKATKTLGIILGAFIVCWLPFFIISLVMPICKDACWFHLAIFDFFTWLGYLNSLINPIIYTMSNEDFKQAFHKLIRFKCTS
Sequence of 5-hydroxytryptamine receptor 2B (P41595 whole entry): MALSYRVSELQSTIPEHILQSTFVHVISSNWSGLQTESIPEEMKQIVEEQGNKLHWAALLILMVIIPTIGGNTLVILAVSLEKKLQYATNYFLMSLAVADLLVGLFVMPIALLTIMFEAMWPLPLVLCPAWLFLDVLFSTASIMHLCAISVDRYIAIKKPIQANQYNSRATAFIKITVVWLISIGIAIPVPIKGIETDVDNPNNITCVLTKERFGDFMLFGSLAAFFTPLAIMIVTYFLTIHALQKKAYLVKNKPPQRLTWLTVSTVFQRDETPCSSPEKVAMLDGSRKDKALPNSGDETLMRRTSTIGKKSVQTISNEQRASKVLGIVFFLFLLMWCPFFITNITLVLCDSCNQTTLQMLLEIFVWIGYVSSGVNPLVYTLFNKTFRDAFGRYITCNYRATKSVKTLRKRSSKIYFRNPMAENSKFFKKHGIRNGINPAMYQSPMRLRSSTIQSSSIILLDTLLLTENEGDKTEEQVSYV
Sequence of 5-hydroxytryptamine receptor 2A (P28223 whole entry): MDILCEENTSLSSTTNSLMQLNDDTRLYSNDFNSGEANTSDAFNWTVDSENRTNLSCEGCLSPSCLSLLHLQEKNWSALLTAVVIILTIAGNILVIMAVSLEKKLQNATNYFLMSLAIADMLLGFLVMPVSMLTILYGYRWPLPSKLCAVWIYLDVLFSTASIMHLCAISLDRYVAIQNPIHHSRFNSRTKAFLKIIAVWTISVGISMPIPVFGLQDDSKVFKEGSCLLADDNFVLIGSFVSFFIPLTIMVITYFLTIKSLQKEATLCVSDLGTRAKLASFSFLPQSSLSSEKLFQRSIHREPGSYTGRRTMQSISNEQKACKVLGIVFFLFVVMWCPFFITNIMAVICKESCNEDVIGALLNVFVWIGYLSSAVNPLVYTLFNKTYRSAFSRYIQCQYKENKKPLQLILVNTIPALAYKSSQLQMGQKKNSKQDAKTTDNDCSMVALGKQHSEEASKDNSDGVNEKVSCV
Sequence of D(3) dopamine receptor (P35462 as listed by the source): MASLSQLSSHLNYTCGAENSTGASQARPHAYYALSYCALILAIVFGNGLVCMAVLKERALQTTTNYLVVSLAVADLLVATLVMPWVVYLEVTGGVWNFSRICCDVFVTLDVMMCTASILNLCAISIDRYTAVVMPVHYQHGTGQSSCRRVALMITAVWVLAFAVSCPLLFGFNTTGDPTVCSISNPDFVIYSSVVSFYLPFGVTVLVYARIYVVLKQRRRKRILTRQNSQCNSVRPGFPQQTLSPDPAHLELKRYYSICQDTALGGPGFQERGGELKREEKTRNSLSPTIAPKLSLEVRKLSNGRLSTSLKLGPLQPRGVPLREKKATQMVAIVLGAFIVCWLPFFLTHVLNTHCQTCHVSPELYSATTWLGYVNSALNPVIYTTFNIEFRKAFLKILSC
Sequence of D(2) dopamine receptor (P14416 whole entry): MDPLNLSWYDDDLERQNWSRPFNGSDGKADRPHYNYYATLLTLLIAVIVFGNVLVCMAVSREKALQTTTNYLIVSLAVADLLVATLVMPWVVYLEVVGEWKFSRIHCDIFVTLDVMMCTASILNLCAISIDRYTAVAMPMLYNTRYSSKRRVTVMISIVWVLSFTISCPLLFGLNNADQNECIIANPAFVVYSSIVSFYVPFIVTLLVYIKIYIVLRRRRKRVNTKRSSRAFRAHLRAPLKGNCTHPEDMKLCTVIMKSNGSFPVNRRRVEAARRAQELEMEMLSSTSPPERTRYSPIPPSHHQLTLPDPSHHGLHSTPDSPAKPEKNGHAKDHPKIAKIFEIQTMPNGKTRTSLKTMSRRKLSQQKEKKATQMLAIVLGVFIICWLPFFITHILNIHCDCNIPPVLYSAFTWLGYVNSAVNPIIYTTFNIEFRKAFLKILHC
Sequence of 5-hydroxytryptamine receptor 1E (P28566 whole entry): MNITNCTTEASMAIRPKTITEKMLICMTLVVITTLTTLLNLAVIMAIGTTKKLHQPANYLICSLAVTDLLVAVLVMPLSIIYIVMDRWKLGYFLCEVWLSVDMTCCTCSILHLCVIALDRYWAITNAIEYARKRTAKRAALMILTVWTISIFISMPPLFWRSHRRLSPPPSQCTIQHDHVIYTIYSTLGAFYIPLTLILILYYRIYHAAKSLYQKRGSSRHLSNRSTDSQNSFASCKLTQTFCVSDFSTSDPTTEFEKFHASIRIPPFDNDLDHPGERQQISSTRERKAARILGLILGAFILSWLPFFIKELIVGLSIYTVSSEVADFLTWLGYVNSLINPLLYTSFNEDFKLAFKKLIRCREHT
Sequence of Muscarinic acetylcholine receptor M3 (P20309 whole entry): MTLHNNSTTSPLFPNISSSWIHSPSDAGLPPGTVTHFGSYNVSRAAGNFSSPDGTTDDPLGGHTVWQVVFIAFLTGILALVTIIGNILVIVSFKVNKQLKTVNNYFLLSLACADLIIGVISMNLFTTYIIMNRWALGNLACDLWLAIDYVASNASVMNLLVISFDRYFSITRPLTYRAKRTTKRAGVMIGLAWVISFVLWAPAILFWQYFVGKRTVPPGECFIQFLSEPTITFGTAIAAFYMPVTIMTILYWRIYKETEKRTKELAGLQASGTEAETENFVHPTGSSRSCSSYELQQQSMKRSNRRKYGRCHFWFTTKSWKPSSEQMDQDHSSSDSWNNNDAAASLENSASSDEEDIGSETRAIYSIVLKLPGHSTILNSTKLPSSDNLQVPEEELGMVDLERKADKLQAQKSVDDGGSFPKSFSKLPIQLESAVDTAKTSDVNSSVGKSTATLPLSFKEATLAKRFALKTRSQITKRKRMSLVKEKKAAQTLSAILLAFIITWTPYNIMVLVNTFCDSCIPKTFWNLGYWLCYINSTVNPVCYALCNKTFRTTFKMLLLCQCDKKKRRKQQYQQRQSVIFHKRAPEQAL

Ki [1]: 0.0199 µM | Ki [2]: 0.0501 µM | Ki [3]: 0.126 µM | Ki [4]: 1.26 µM | Ki (D(3) dopamine receptor): 0.398 µM | Ki [5]: 0.0398 µM | Ki [6]: 2.51 µM | Ki (D(2) dopamine receptor): 1 µM | Ki [7]: 0.251 µM | Ki [8]: 0.316 µM | Ki [9]: 0.126 µM | Ki [10]: 1.58 µM | Ki [11]: 0.0398 µM
SMILES: CCCCCCOc1nsnc1C1=CCCN(C)C1

Reference: BindingDB's records for doi:10.1038/sj.bjp.0702201 (Smithkline Beecham Pharmaceuticals, 1998)
